From US5556744A, “Methods and compositions for diagnosing and treating certain HIV infected patients” (The Trustees of the University of Pennsylvania, priority 1994, dated 1996)

Test system: maternal HIV+ sera (antibodies)
Assay: RIA / ELISA binding of maternal HIV+ sera to gp120 and gp41 peptides (Example 3)
Parameters: species or system human
Settings: for Binding of maternal sera to peptide (in words): Example 3
Description: Radioimmunoassay (RIA) and enzyme-linked immunosorbent assay (ELISA) were performed by standard methodologies [E. Engvall, Meth. Immunol., 70:419-439 (1980); S. K. Pierce et al, J. Exp. Med., 144:1254-1262 (1976)]. Peptides were dissolved in 0.05M carbonate-bicarbonate buffer (pH 9.6) at a concentration of 10 μg/ml. Fifty μl (500 ng) of the peptides were immobilized in 96 well polyvinylchloride plates (Dynatech Laboratories, Inc.) overnight at 4° C. Plates were washed and non-specific sites were blocked with PBS containing 1% BSA overnight at 4° C.
Dilutions of HIV positive maternal sera were made in blocking buffer at dilutions of 1:50 and 1:500 and incubated in peptide coated plates overnight at 4° C. Plates were washed with PBS and incubated with 75,000 cpm of ^125 I-labelled goat anti-human IgG. The antibody was iodinated by a chloramine T method [W. V. Williams et al, Proc. Natl. Acad. Sci. USA, 85:6488-6492 (1988)]. Plates were washed, dried and counted in a gamma counter to measure specific binding. Normal human serum (i.e., HIV seronegative) was used as a control.
Alternatively, ELISA assays were performed in polystyrene plates (Dynatech Laboratories, Inc) in which 0.05% Tween 20 (Sigma Chemical Co.) was included in the washing, blocking and dilution buffers. The secondary antibody used was goat […] Ig conjugated to horseradish peroxidase (HRP) (Sigma Chemical Co). The substrate used for color development was 3,3',5,5' tetramethyl-benzidine dihydrochloride (TMB) (Sigma Chemical Co). Absorbance of samples was measured in a Dynatech MR5000 (Dynatech Laboratories, Inc.) plate reader and expressed as an optical density at wavelength of 450 nm (OD450).
The following key is used for the designation of specific binding of the maternal sera samples to the peptides: The minus sign, -, is equivalent to the specific OD450 or cpm of sera sample binding to peptide divided by the specific OD450 or cpm of NHS sample binding to peptide, which value is less than 2. The plus sign, +, is equivalent to the specific OD450 or cpm of sera sample binding to peptide divided by the specific OD450 or cpm of NHS sample binding to peptide, which value is between 2 to 3.
Specific binding is defined as the difference between the OD450 or cpm of sera to wells with peptide and the OD450 or cpm of sera to wells without peptide.
Comparisons of number of peptides which bound maternal serum samples were made between the transmission group and the nontransmission group. The data was analyzed using the unpaired student's test. For the determination of differences in the binding of specific peptides between transmission and non-transmission groups, the Spearman's rank-order correlation test was performed.

[1] = Serum No. 1, Non-Transmission Group
[2] = Serum No. 2, Non-Transmission Group
[3] = Serum No. 3, Non-Transmission Group
[4] = Serum No. 4, Transmission Group
[5] = Serum No. 5, Transmission Group
[6] = Serum No. 6, Non-Transmission Group
[7] = Serum No. 7, Non-Transmission Group
[8] = Serum No. 8, Non-Transmission Group
[9] = Serum No. 9, Non-Transmission Group
[10] = Serum No. 10, Transmission Group
[11] = Serum No. 11, Non-Transmission Group
[12] = Serum No. 12, Non-Transmission Group
[13] = Serum No. 13, Transmission Group
[14] = Serum No. 14, Transmission Group
[15] = Serum No. 15, Transmission Group
[16] = Serum No. 16, Non-Transmission Group
[17] = Serum No. 17, Non-Transmission Group
[18] = Serum No. 18, Non-Transmission Group
[19] = Serum No. 19, Transmission Group
[20] = Serum No. 20, Non-Transmission Group

| Sequence | Binding of maternal sera to peptide (in words) | Binding of maternal HIV+ serum to peptide (sera/NHS ratio) [1] | Binding of maternal HIV+ serum to peptide (sera/NHS ratio) [2] | Binding of maternal HIV+ serum to peptide (sera/NHS ratio) [3] | Binding of maternal HIV+ serum to peptide (sera/NHS ratio) [4] | Binding of maternal HIV+ serum to peptide (sera/NHS ratio) [5] | Binding of maternal HIV+ serum to peptide (sera/NHS ratio) [6] | Binding of maternal HIV+ serum to peptide (sera/NHS ratio) [7] | Binding of maternal HIV+ serum to peptide (sera/NHS ratio) [8] | Binding of maternal HIV+ serum to peptide (sera/NHS ratio) [9] | Binding of maternal HIV+ serum to peptide (sera/NHS ratio) [10] | Binding of maternal HIV+ serum to peptide (sera/NHS ratio) [11] | Binding of maternal HIV+ serum to peptide (sera/NHS ratio) [12] | Binding of maternal HIV+ serum to peptide (sera/NHS ratio) [13] | Binding of maternal HIV+ serum to peptide (sera/NHS ratio) [14] | Binding of maternal HIV+ serum to peptide (sera/NHS ratio) [15] | Binding of maternal HIV+ serum to peptide (sera/NHS ratio) [16] | Binding of maternal HIV+ serum to peptide (sera/NHS ratio) [17] | Binding of maternal HIV+ serum to peptide (sera/NHS ratio) [18] | Binding of maternal HIV+ serum to peptide (sera/NHS ratio) [19] | further results |
| --- | --- | --- | --- | --- | --- | --- | --- | --- | --- | --- | --- | --- | --- | --- | --- | --- | --- | --- | --- | --- | --- |
| YDTEVHNVWATHACV [Peptide 94] | Several maternal serum samples had reactivity | ++ (which value is greater than 3) | - (specific OD450 or cpm of sera sample binding to peptide divided by the specific OD450 or cpm of NHS sample binding to peptide, which value is less than 2) | ++ (which value is greater than 3) | - (specific OD450 or cpm of sera sample binding to peptide divided by the specific OD450 or cpm of NHS sample binding to peptide, which value is less than 2) | - (specific OD450 or cpm of sera sample binding to peptide divided by the specific OD450 or cpm of NHS sample binding to peptide, which value is less than 2) | - (specific OD450 or cpm of sera sample binding to peptide divided by the specific OD450 or cpm of NHS sample binding to peptide, which value is less than 2) | - (specific OD450 or cpm of sera sample binding to peptide divided by the specific OD450 or cpm of NHS sample binding to peptide, which value is less than 2) | - (specific OD450 or cpm of sera sample binding to peptide divided by the specific OD450 or cpm of NHS sample binding to peptide, which value is less than 2) | - (specific OD450 or cpm of sera sample binding to peptide divided by the specific OD450 or cpm of NHS sample binding to peptide, which value is less than 2) | - (specific OD450 or cpm of sera sample binding to peptide divided by the specific OD450 or cpm of NHS sample binding to peptide, which value is less than 2) | - (specific OD450 or cpm of sera sample binding to peptide divided by the specific OD450 or cpm of NHS sample binding to peptide, which value is less than 2) | - (specific OD450 or cpm of sera sample binding to peptide divided by the specific OD450 or cpm of NHS sample binding to peptide, which value is less than 2) | - (specific OD450 or cpm of sera sample binding to peptide divided by the specific OD450 or cpm of NHS sample binding to peptide, which value is less than 2) | - (specific OD450 or cpm of sera sample binding to peptide divided by the specific OD450 or cpm of NHS sample binding to peptide, which value is less than 2) | - (specific OD450 or cpm of sera sample binding to peptide divided by the specific OD450 or cpm of NHS sample binding to peptide, which value is less than 2) | - (specific OD450 or cpm of sera sample binding to peptide divided by the specific OD450 or cpm of NHS sample binding to peptide, which value is less than 2) | - (specific OD450 or cpm of sera sample binding to peptide divided by the specific OD450 or cpm of NHS sample binding to peptide, which value is less than 2) | - (specific OD450 or cpm of sera sample binding to peptide divided by the specific OD450 or cpm of NHS sample binding to peptide, which value is less than 2) | - (specific OD450 or cpm of sera sample binding to peptide divided by the specific OD450 or cpm of NHS sample binding to peptide, which value is less than 2) | Number of maternal sera binding to peptide (20 maternal sera): two; Binding of maternal HIV+ serum to peptide (sera/NHS ratio) [20]: - (specific OD450 or cpm of sera sample binding to peptide divided by the specific OD450 or cpm of NHS sample binding to peptide, which value is less than 2); Number of binding maternal sera from the transmission group (vertical transmission group (7 sera)): neither |
| PQEVVLVNVTGENFNM [Peptide 96] | No binding | - (specific OD450 or cpm of sera sample binding to peptide divided by the specific OD450 or cpm of NHS sample binding to peptide, which value is less than 2) | - (specific OD450 or cpm of sera sample binding to peptide divided by the specific OD450 or cpm of NHS sample binding to peptide, which value is less than 2) | - (specific OD450 or cpm of sera sample binding to peptide divided by the specific OD450 or cpm of NHS sample binding to peptide, which value is less than 2) | - (specific OD450 or cpm of sera sample binding to peptide divided by the specific OD450 or cpm of NHS sample binding to peptide, which value is less than 2) | - (specific OD450 or cpm of sera sample binding to peptide divided by the specific OD450 or cpm of NHS sample binding to peptide, which value is less than 2) | - (specific OD450 or cpm of sera sample binding to peptide divided by the specific OD450 or cpm of NHS sample binding to peptide, which value is less than 2) | - (specific OD450 or cpm of sera sample binding to peptide divided by the specific OD450 or cpm of NHS sample binding to peptide, which value is less than 2) | - (specific OD450 or cpm of sera sample binding to peptide divided by the specific OD450 or cpm of NHS sample binding to peptide, which value is less than 2) | - (specific OD450 or cpm of sera sample binding to peptide divided by the specific OD450 or cpm of NHS sample binding to peptide, which value is less than 2) | - (specific OD450 or cpm of sera sample binding to peptide divided by the specific OD450 or cpm of NHS sample binding to peptide, which value is less than 2) | - (specific OD450 or cpm of sera sample binding to peptide divided by the specific OD450 or cpm of NHS sample binding to peptide, which value is less than 2) | - (specific OD450 or cpm of sera sample binding to peptide divided by the specific OD450 or cpm of NHS sample binding to peptide, which value is less than 2) | - (specific OD450 or cpm of sera sample binding to peptide divided by the specific OD450 or cpm of NHS sample binding to peptide, which value is less than 2) | - (specific OD450 or cpm of sera sample binding to peptide divided by the specific OD450 or cpm of NHS sample binding to peptide, which value is less than 2) | - (specific OD450 or cpm of sera sample binding to peptide divided by the specific OD450 or cpm of NHS sample binding to peptide, which value is less than 2) | - (specific OD450 or cpm of sera sample binding to peptide divided by the specific OD450 or cpm of NHS sample binding to peptide, which value is less than 2) | - (specific OD450 or cpm of sera sample binding to peptide divided by the specific OD450 or cpm of NHS sample binding to peptide, which value is less than 2) | - (specific OD450 or cpm of sera sample binding to peptide divided by the specific OD450 or cpm of NHS sample binding to peptide, which value is less than 2) | - (specific OD450 or cpm of sera sample binding to peptide divided by the specific OD450 or cpm of NHS sample binding to peptide, which value is less than 2) | Binding of maternal HIV+ serum to peptide (sera/NHS ratio) [20]: - (specific OD450 or cpm of sera sample binding to peptide divided by the specific OD450 or cpm of NHS sample binding to peptide, which value is less than 2) |
